{"source": "ChEMBL document CHEMBL1129416", "about": "“Brain-targeted delivery of a leucine-enkephalin analogue by retrometabolic design” (J Med Chem, 1996)", "assay": "The compound was evaluated for opioid receptors binding affinity competition with [3H]diprenorphine.", "data": [{"smiles": "CC(C)C[C@@H](NC(=O)[C@H](Cc1ccccc1)NC(=O)CNC(=O)[C@@H](C)NC(=O)[C@@H](N)Cc1ccc(O)cc1)C(=O)O", "note": "[DADLE]", "values": [{"measurement": "IC50", "value": 36, "unit": "nM"}]}]}
